Test results from patent US4678780A, “Anti-spasmodic agents having a ring in the main chain” (United Pharmaceuticals, Inc., priority 1986, dated 1987).
Where a name gives a salt, the structure may show the parent alone.

Experiments:
muscarinic receptors = assay type: binding, rabbit (New Zealand White); conditions: at a concentration of 1.0 × 10^-5 M; 0.1 nM [3H]QNB; 37° C., 60 min; pH 7.4
[1] = system: gastrointestinal tract, biliary tract, ureter and uterus; conditions: in vivo; cited from earlier work
[2] = in vivo; cited from earlier work

CCN(CC)CCSC(=O)c1ccc(C(C)(C)C)cc1 [4-t-butyl-benzoyl-thio-S-(2-diethylaminoethyl)-ester.HCl]
% inhibition of ^3 H[QNB] binding (muscarinic receptors): 21%

CCN(CC)CCSC(=O)C(c1ccccc1)c1ccccc1 [Thiphenamil hydrochloride]
decrease spasm [1]: decrease spasm of the gastrointestinal tract, biliary tract, ureter and uterus | atropinic side effects [2]: without producing characteristic atropinic side effects on salivary and sweat glands, GI glands, the eye or the cardiovascular system
